How the values were obtained:
[1] = tested on: NCM356 cells; experiment: NCM356 non-malignant colonic epithelial cell proliferation (xCELLigence); assay type: cell-based, human; conditions: AOAA 1 mM
Protocol: Cellular proliferation assays are conducted in HCT116 CRC cells in vitro, using the Roche XCelligence method. Concentration-response curves with the various AOAA analogs are prepared (concentration range: 1, 3, 10, 100, 300 and 600 μM). AOAA is used as the reference control, which, according to preliminary data, has an IC50 of approximately 300 μM. Control proliferation studies in the non-carcinogenic colonic epithelial cell line NCM356 are used to confirm cancer-cell selectivity. Since the NCM356 cells contain low levels of CBS, based on previous studies it is expect that AOAA (and its prodrugs) will only exert modest antiproliferative effects in these cells. Proliferation-inhibitory effects of the AOAA prodrugs in NCM356 cells indicate CBS-independent pharmacological actions. […]
Cellular migration and invasion assays were performed as described (Chao et al. (1996) Cancer Res. 56:4811-19). […] Migrated and invaded cells were then fixed in Carson's fixative, stained in 0.33% toluidine blue and quantified by visual counting. For the HCT116-EAhy926 co-culture experiment, the cancer cell line was grown to confluence in the bottom wells of the transwell chambers and then endothelial cell migration was assessed (Coletta et al. (2012) Proc Natl Acad Sci USA. 109:9161-66). […]

[2] = tested on: patient-derived colon cancer xenografts; experiment: Patient-derived tumor xenograft (PDTX) growth; assay type: in vivo, nu/nu mice; conditions: AOAA 9 mg/kg/day s.c.
Protocol: Nu/nu Balb/C female mice (8-10 weeks) were injected subcutaneously in the right and left dorsum (10^6 cells/side with HCT-116 cells). One week later, the mice were randomized and subcutaneous injections of phosphate buffered saline (PBS) or AOAA (9 mg/kg/day) were performed 6 days/week. Tumor diameters were measured transcutaneously using calipers and tumor volumes were calculated using the formula V=(π/6)hd^2. T-test comparisons of the tumor volumes and final weights at harvest were performed. Xenotrials with patient-derived xenografts (PTX) were performed on nu/nu mice implanted subcutaneously with a piece of Passage 2 tumor measuring 2-5 mm^3 each. When a small palpable tumor was evident at 7-10 days, the mice with tumor take were randomized and subjected to subcutaneous injection of vehicle or AOAA (9 mg/kg/day) 6 days/week. Specimens were fixed with 10% formalin and embedded in paraffin. 5 μm sections were stained with hematoxylin and eosin. Each in vivo experiment was repeated at least twice.

[3] = tested on: human endothelial cells (EAhy926); experiment: Endothelial cell migration in co-culture with HCT116; assay type: cell-based; conditions: 4 hours at 37° C.
Protocol: FIG. 3. […] (A, B) The lentiviral shRNA vectors targeting CBS (shCBS) and CSE (shCSE) were transfected into HCT116 cells. A non-targeting sequence was used as control (shNT). […] Following CBS and CSE silencing, cells were seeded at the density of 3000 cells/well in xCELLigence plates and proliferation was monitored for 36 hours. […] The NCM356 cells were infected overnight with a CBS expressing adenovirus (Ad-CBS, 10 multiplicity of infection (MOI)) or its control, a green fluorescent protein (Ad-GFP). The culture media was then replaced and cells were seeded in XCelligence plates at 3000 cells/well. Cell proliferation was then measured real-time over 36 hours. […] (H, I) The effect of AOAA and NaHS was also tested on HCT116 cell migration (H) and invasion (I). […]
Cellular migration and invasion assays were performed as described (Chao et al. (1996) Cancer Res. 56:4811-19). […] Migrated and invaded cells were then fixed in Carson's fixative, stained in 0.33% toluidine blue and quantified by visual counting. For the HCT116-EAhy926 co-culture experiment, the cancer cell line was grown to confluence in the bottom wells of the transwell chambers and then endothelial cell migration was assessed (Coletta et al. (2012) Proc Natl Acad Sci USA. 109:9161-66).

`NOCC(=O)O` [AOAA, aminooxyacetic acid] was tested, and the NCM356 growth [1] was “did not affect”, the “PDTX growth, second patient with stage II disease and mutant Kras allele” value [2] was “growth inhibitory effects” and the “rate of PDTX growth, patient with stage III disease and Kras mutation” value [2] was “reduced rate”. For the same compound, the “HCT116-induced endothelial cell migration” value [3] was “reduced”.
